What all share (format): functional
Assay [1] deals with Felis catus. The assay can be described thus: Evaluated for its relative defibrillating activity in male cats 10 min after injection at concentration 2 mg/Kg.
Assay [2] relates to Felis catus. The assay can be described thus: Evaluated for its relative defibrillating activity in male cats 10 min after injection at concentration 1 mg/Kg.
Assay [3] deals with Felis catus. The assay can be described thus: Evaluated for its relative defibrillating activity in male cats 10 min after injection at concentration 3 mg/Kg.
Assay [4] relates to Felis catus. Nature of the assay: Evaluated for its relative defibrillating activity in male cats 10 min after injection at concentration 0.5 mg/Kg.
In assay [5] the test system is Felis catus. Nature of the assay: Evaluated for its relative defibrillating activity in male cats 10 min after injection at 2 mg/Kg.
The subject of assay [6] is Felis catus. The assay can be described thus: Evaluated for its relative defibrillating activity in male cats 10 min after injection at 1 mg/Kg.
Assay [7] deals with Felis catus. Nature of the assay: Evaluated for its relative defibrillating activity in male cats 10 min after injection at 3 mg/Kg.
Assay [8] concerns Felis catus. Nature of the assay: Evaluated for its relative defibrillating activity in male cats 10 min after injection at 0.5 mg/Kg.

For `CC(C)(C)NCCC(=O)N1c2ccccc2CCc2ccccc21.Cl`, the Relative activity is 100% in the assay on Felis catus [1], 50% with Felis catus [2] and 100% with Felis catus [3].

Turning to `CC(C)NC[C@H](O)CN1c2ccccc2CCc2ccccc21.Cl`, the figures for the Relative activity in the assay on Felis catus [1], in the assay with Felis catus [2] and with Felis catus [4] were 100%, 100% and 75%, respectively.

With `CC(C)CNCCC(=O)N1c2ccccc2CCc2ccccc21.Cl`, the Relative activity in the assay with Felis catus [1], in the assay on Felis catus [2] and with Felis catus [3] was 0% each time.

As for `CNCCC(=O)N1c2ccccc2NC(=O)c2ccccc21.Cl`, the Relative activity in the assay on Felis catus [1], in the assay with Felis catus [2] and in the assay with Felis catus [3] was 0% throughout.

For the compound `CC(C)NCC(O)CN1c2ccccc2CCc2ccccc21.Cl` (configuration not stated), the Relative activity in the assay on Felis catus [1] was found to be 100%; in the assay with Felis catus [2] it was 50%; with Felis catus [3], 100%; in the assay with Felis catus [4] it was 50%.

As for `CCNCCC(=O)N1c2ccccc2NC(=O)c2ccccc21.Cl`, the Relative activity in the assay with Felis catus [1] and with Felis catus [3] was 0% throughout.

For `CC(C)NCCC(=O)N1c2ccccc2NC(=O)c2ccccc21.Cl`, the Relative activity in the assay on Felis catus [1] and in the assay with Felis catus [3] was 0% in each case.

Turning to `CNCCC(=O)N1c2ccccc2CCc2ccccc21.Cl`, the Relative activity worked out at 100% with Felis catus [5], 25% in the assay with Felis catus [6], 100% in the assay with Felis catus [7] and 0% with Felis catus [8].

Turning to `CC(C)NCCC(=O)N1c2ccccc2CCc2ccccc21.Cl`, the Relative activity in the assay with Felis catus [1] amounted to 100%; in the assay on Felis catus [2], 75%; with Felis catus [7] it was 100%; in the assay on Felis catus [4] it was 25%.

`CC(C)NC[C@@H](O)CN1c2ccccc2CCc2ccccc21.Cl`: the Relative activity with Felis catus [1] is recorded as 100%; in the assay on Felis catus [2], 50%; in the assay with Felis catus [4] it was 50%.

Turning to `Cl.O=C(CCNCc1ccccc1)N1c2ccccc2CCc2ccccc21`, the Relative activity with Felis catus [1], in the assay with Felis catus [2] and in the assay on Felis catus [3] was 0% in each case.

Turning to `CCC(C)NCCC(=O)N1c2ccccc2CCc2ccccc21.Cl` (configuration not stated), the Relative activity in the assay with Felis catus [1], in the assay with Felis catus [2] and in the assay with Felis catus [3] was 0% in each case.

For `CCNCCC(=O)N1c2ccccc2CCc2ccccc21.Cl`, the Relative activity in the assay on Felis catus [5] amounted to 75%; in the assay with Felis catus [6], 50%; in the assay on Felis catus [7], 100%; in the assay on Felis catus [8], 0%.

On to `CNCCCN1c2ccccc2CCc2ccccc21` [DESIPRAMINE], for which the Relative activity came out at 75% with Felis catus [1], 25% with Felis catus [2] and 100% in the assay on Felis catus [3].

As to `CN(C)CCCN1c2ccccc2CCc2ccccc21` [IMIPRAMINE], the Relative activity in the assay on Felis catus [1] stood at 50%; with Felis catus [2], 0%; with Felis catus [3], 75%.

The record behind these values is ChEMBL document CHEMBL1133839, “A new class of antiarrhythmic-defibrillatory agents” (2001).
